Experimental data: the supplement of paper PMC10307832

Columns and labels:
Experiment in all cases: relative viability (nuclei count vs DMSO), 5 days (fraction); higher = more cells survive
AZD8055 + AZD7762 = compound: COc1ccc(-c2ccc3c(N4CCOC[C@@H]4C)nc(N4CCOC[C@@H]4C)nc3n2)cc1CO [AZD8055] + NC(=O)Nc1cc(-c2cccc(F)c2)sc1C(=O)N[C@H]1CCCNC1 [AZD7762] (partner 0.2 µM)
Summary of the method: (§1)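 Relative viability was taken as the ratio of nuclei in treated wells to nuclei in vehicle wells. Lung cancer cell lines in 1536-well plates received compounds by pin tool one day after seeding, either one drug alone or a fixed anchor-drug dose plus five library-drug doses (not always all listed) in √10 steps. Nuclei were counted on 4× images after 5 days of treatment, and values are medians of duplicate plates.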

AZD8055 + Alpelisib = compound: COc1ccc(-c2ccc3c(N4CCOC[C@@H]4C)nc(N4CCOC[C@@H]4C)nc3n2)cc1CO [AZD8055] + Cc1nc(NC(=O)N2CCC[C@H]2C(N)=O)sc1-c1ccnc(C(C)(C)C(F)(F)F)c1 [Alpelisib] (partner 2 µM)
Summary of the method: as §1

AZD8055 + Phenformin = compound: COc1ccc(-c2ccc3c(N4CCOC[C@@H]4C)nc(N4CCOC[C@@H]4C)nc3n2)cc1CO [AZD8055] + N=C(N)NC(=N)NCCc1ccccc1 [Phenformin] (partner 250 µM)
Summary of the method: as §1

AZD8055 + Pictilisib = compound: COc1ccc(-c2ccc3c(N4CCOC[C@@H]4C)nc(N4CCOC[C@@H]4C)nc3n2)cc1CO [AZD8055] + CS(=O)(=O)N1CCN(Cc2cc3nc(-c4cccc5[nH]ncc45)nc(N4CCOCC4)c3s2)CC1 [Pictilisib] (partner 1 µM)
Summary of the method: as §1

Cell Line | relative viability (AZD8055 + AZD7762; first compound 0.01 µM) | relative viability (AZD8055 + AZD7762; first compound 0.03162 µM) | relative viability (AZD8055 + AZD7762; first compound 0.1 µM) | relative viability (AZD8055 + AZD7762; first compound 0.3162 µM) | relative viability (AZD8055 + AZD7762; first compound 1 µM) | relative viability (AZD8055 + Alpelisib; first compound 0.01 µM) | relative viability (AZD8055 + Alpelisib; first compound 0.03162 µM) | relative viability (AZD8055 + Alpelisib; first compound 0.1 µM) | relative viability (AZD8055 + Alpelisib; first compound 0.3162 µM) | relative viability (AZD8055 + Alpelisib; first compound 1 µM) | relative viability (AZD8055 + Phenformin; first compound 0.01 µM) | relative viability (AZD8055 + Phenformin; first compound 0.03162 µM) | relative viability (AZD8055 + Phenformin; first compound 0.1 µM) | relative viability (AZD8055 + Phenformin; first compound 0.3162 µM) | relative viability (AZD8055 + Phenformin; first compound 1 µM) | relative viability (AZD8055 + Pictilisib; first compound 0.01 µM) | relative viability (AZD8055 + Pictilisib; first compound 0.03162 µM) | relative viability (AZD8055 + Pictilisib; first compound 0.1 µM) | relative viability (AZD8055 + Pictilisib; first compound 0.3162 µM) | relative viability (AZD8055 + Pictilisib; first compound 1 µM)
HCC-366 | 0.364 | 0.255 | 0.268 | 0.124 | 0.0821 | 0.479 | 0.243 | 0.169 | 0.0661 | 0.07 | 0.737 | 0.449 | 0.592 | 0.23 | 0.168 | 0.0713 | 0.137 | 0.132 | 0.0885 | 0.0934
HCC-827 | 0.203 | 0.319 | 0.189 | 0.212 | 0.165 | 0.974 | 0.863 | 0.736 | 0.305 | 0.254 | 0.426 | 0.395 | 0.416 | 0.349 | 0.288 | 1.1 | 0.875 | 0.741 | 0.495 | 0.477
HOP-62 | 0.677 | 0.418 | 0.512 | 0.167 | 0.111 | 1.26 | 1.18 | 0.667 | 0.434 | 0.26 | 0.717 | 0.628 | 0.585 | 0.462 | 0.294 | 0.878 | 0.534 | 0.582 | 0.246 | 0.259
LC-2-ad | 0.909 | 0.873 | 0.816 | 0.791 | 0.645 | 0.841 | 0.827 | 0.697 | 0.42 | 0.402 | 0.549 | 0.564 | 0.538 | 0.336 | 0.362 | 0.464 | 0.458 | 0.322 | 0.339 | 0.255
LCLC-97TM1 | 0.23 | 0.176 | 0.173 | 0.145 | 0.11 | 0.233 | 0.179 | 0.135 | 0.14 | 0.135 | 0.477 | 0.182 | 0.178 | 0.121 | 0.187 | 0.172 | 0.107 | 0.106 | 0.108 | 0.176
LCLC-103H | 0.739 | 0.608 | 0.592 | 0.343 | 0.371 | 0.956 | 0.88 | 0.774 | 0.538 | 0.422 | 0.307 | 0.291 | 0.268 | 0.206 | 0.224 | 0.612 | 0.572 | 0.546 | 0.52 | 0.332
LK-2 | 0.285 | 0.204 | 0.205 | 0.104 | 0.135 | 1.03 | 0.658 | 0.447 | 0.331 | 0.265 | 0.234 | 0.186 | 0.118 | 0.198 | 0.239 | 0.571 | 0.438 | 0.368 | 0.335 | 0.195
LOU-NH91 | 0.684 | 0.702 | 0.621 | 0.557 | 0.555 | 0.705 | 0.669 | 0.556 | 0.537 | 0.511 | 0.678 | 0.711 | 0.532 | 0.49 | 0.455 | 0.546 | 0.542 | 0.512 | 0.478 | 0.491
LU99A | 0.366 | 0.242 | 0.185 | 0.152 | 0.133 | 0.32 | 0.261 | 0.158 | 0.189 | 0.228 | 0.802 | 0.626 | 0.492 | 0.276 | 0.28 | 0.281 | 0.18 | 0.168 | 0.195 | 0.22
LXF-289 | 1.28 | 1.2 | 1.19 | 0.978 | 0.744 | 1.02 | 0.923 | 0.742 | 0.567 | 0.515 | 0.539 | 0.534 | 0.508 | 0.458 | 0.385 | 0.83 | 0.673 | 0.556 | 0.411 | 0.454
NCI-H23 | 0.202 | 0.245 | 0.233 | 0.161 | 0.14 | 0.668 | 0.604 | 0.406 | 0.268 | 0.269 | 0.785 | 0.778 | 0.713 | 0.465 | 0.403 | 0.472 | 0.314 | 0.314 | 0.251 | 0.293
NCI-H322M | 0.51 | 0.454 | 0.434 | 0.426 | 0.432 | 0.696 | 0.0834 | 0.673 | 0.433 | 0.402 | 0.726 | 0.704 | 0.662 | 0.501 | 0.502 | 0.46 | 0.463 | 0.436 | 0.444 | 0.422
NCI-H358 | 0.701 | 0.557 | 0.523 | 0.308 | 0.203 | 0.714 | 0.786 | 0.75 | 0.295 | 0.216 | 0.362 | 0.387 | 0.294 | 0.151 | 0.121 | 0.334 | 0.301 | 0.233 | 0.222 | 0.245
NCI-H441 | 1.24 | 1.14 | 0.837 | 0.562 | 0.382 | 0.678 | 0.42 | 0.444 | 0.331 | 0.315 | 0.767 | 0.574 | 0.628 | 0.27 | 0.343 | 0.518 | 0.483 | 0.375 | 0.215 | 0.267
NCI-H460 | 0.831 | 0.51 | 0.607 | 0.137 | 0.092 | 0.314 | 0.195 | 0.148 | 0.0795 | 0.0574 | 0.609 | 0.474 | 0.124 | 0.049 | 0.034 | 0.338 | 0.295 | 0.262 | 0.226 | 0.264
NCI-H596 | 1.04 | 0.776 | 0.632 | 0.567 | 0.489 | 0.479 | 0.385 | 0.348 | 0.348 | 0.324 | 0.777 | 0.685 | 0.608 | 0.407 | 0.375 | 0.341 | 0.363 | 0.32 | 0.308 | 0.337
NCI-H647 | 0.397 | 0.338 | 0.391 | 0.157 | 0.1 | 0.987 | 0.623 | 0.332 | 0.208 | 0.167 | 0.564 | 0.412 | 0.331 | 0.14 | 0.15 | 0.46 | 0.329 | 0.282 | 0.16 | 0.149
NCI-H650 | 0.84 | 0.875 | 1.02 | 0.667 | 0.323 | 0.968 | 0.834 | 0.695 | 0.385 | 0.385 | 0.473 | 0.378 | 0.429 | 0.305 | 0.302 | 0.905 | 0.736 | 0.623 | 0.307 | 0.304
NCI-H727 | 0.727 | 0.574 | 0.528 | 0.434 | 0.338 | 0.564 | 0.435 | 0.356 | 0.255 | 0.269 | 0.542 | 0.38 | 0.584 | 0.33 | 0.327 | 0.4 | 0.379 | 0.28 | 0.225 | 0.283
NCI-H838 | 1.06 | 0.932 | 0.85 | 0.711 | 0.659 | 0.981 | 0.781 | 0.412 | 0.276 | 0.288 | 0.553 | 0.362 | 0.354 | 0.233 | 0.218 | 0.439 | 0.212 | 0.212 | 0.219 | 0.257
NCI-H1355 | 0.856 | 0.663 | 0.594 | 0.288 | 0.248 | 0.677 | 0.472 | 0.332 | 0.215 | 0.222 | 0.442 | 0.396 | 0.344 | 0.286 | 0.28 | 0.419 | 0.374 | 0.269 | 0.251 | 0.238
NCI-H1395 | 0.384 | 0.405 | 0.443 | 0.34 | 0.419 | 1.09 | 0.809 | 0.691 | 0.612 | 0.504 | 0.447 | 0.396 | 0.333 | 0.394 | 0.374 | 0.587 | 0.535 | 0.636 | 0.478 | 0.425
NCI-H1437 | 1.16 | 1.1 | 1.12 | 0.568 | 0.494 | 0.802 | 0.808 | 0.697 | 0.178 | 0.159 | 0.315 | 0.299 | 0.301 | 0.206 | 0.203 | 0.394 | 0.225 | 0.223 | 0.124 | 0.127
NCI-H1651 | 0.499 | 0.431 | 0.424 | 0.237 | 0.161 | 1.04 | 0.716 | 0.671 | 0.405 | 0.325 | 0.323 | 0.318 | 0.329 | 0.261 | 0.232 | 0.664 | 0.452 | 0.433 | 0.257 | 0.283
NCI-H1666 | 0.945 | 1.09 | 0.908 | 0.76 | 0.698 | 0.884 | 0.696 | 0.621 | 0.47 | 0.438 | 0.619 | 0.553 | 0.584 | 0.542 | 0.488 | 0.333 | 0.491 | 0.347 | 0.272 | 0.38
NCI-H1734 | 0.549 | 0.361 | 0.273 | 0.181 | 0.15 | 0.762 | 0.554 | 0.378 | 0.226 | 0.23 | 0.417 | 0.288 | 0.264 | 0.176 | 0.194 | 0.427 | 0.312 | 0.295 | 0.175 | 0.199
